From US20200255492A1, “LEPTIN PEPTIDES AND THEIR USE FOR TREATING NEUROLOGICAL DISORDERS” (UNIVERSITY OF DUNDEE, priority 2017, published 2020)

Experiments:
hippocampal cultures = test: Synaptophysin staining and surface GluA1-synaptophysin colocalization; type: cell-based, Sprague Dawley rats; conditions: for colocalization between surface GluA1 and synaptophysin immunostaining: control 43±5.4%; for synaptophysin staining: leptin 50 nM, 30 min
Method: Hippocampal cultures were prepared from neonatal Sprague Dawley rats as before (O'Malley et al. 2007). Briefly, neonatal Sprague Dawley rats (1-3 days old) were killed by cervical dislocation in accordance with Schedule 1 of the United Kingdom Government Animals (Scientific Procedures) Act, 1986 and the hippocampi removed. After washing in HEPES buffered saline (HBS) comprising (mM): NaCl 135; KCl 5; CaCl2 1; MgCl2 1; HEPES 10; D-glucose 25 at pH 7.4; cells were treated with protease Type X and Type XIV (0.5 mg/ml; Sigma) for 25 min at room temperature. Dissociated cells were plated onto sterile dishes (Falcon 3001) treated with poly-1-lysine (20 μg/ml; 1-2 h) and maintained in MEM with serum replacement-2 (Sigma) in a humidified atmosphere of 5% CO2 and […] at 37° C. for up to 3 weeks.
To monitor GluA1 surface expression, immunocytochemistry was performed on hippocampal cultures (7-14 DIV) as before (Moult et al. 2010). […] Neurons were then fixed with 4% paraformaldehyde (5 min) before adding an appropriate fluorescently labelled secondary.
As excitatory synaptic strength is governed by the density of AMPA receptors expressed at synapses, the effects on synaptic AMPA receptors was examined by comparing the colocalization between surface GluA1 and synaptophysin immunolabelling in hippocampal cultures (Moult et al. 2010). […] Similarly, in hippocampal neurons treated with leptin (116-130), synaptophysin staining was increased to 122±9% (n=36; P<0.05) and a significant increase (to 64±4.9%; n=36; P<0.01) in GluA1-synaptophysin colocalization was observed (FIG. 2E). Conversely, exposure to leptin (22-56) had no significant effect on either synaptophysin staining (105±9%; n=36; P>0.05) or the degree of colocalization (49±5.4%; n=36; P>0.05; FIG. 2E).

[1] = test system: juvenile hippocampal slices; test: HFS-induced synaptic plasticity and its inhibition by Aβ1-42; type: cell-based, Sprague Dawley rats; conditions: for synaptic transmission after HFS in slices exposed to Aβ1-42: 25 nM before Aβ1-42
Method: Parasagittal hippocampal slices (300 μm) were prepared from either P13-21 or 12-24-week-old male Sprague Dawley rats as previously (Moult et al. 2010). Brains were rapidly removed and placed in ice-cold artificial CSF (aCSF; bubbled with 95% O2 and 5% CO2) containing the following (in mm): 124 NaCl, 3 KCl, 26 NaHCO3, 1.25 NaH2PO4, 2 CaCl2, 1 MgSO4, and 10 d-glucose. Once prepared, parasagittal slices were allowed to recover at room temperature in oxygenated aCSF for 1 h before use. Slices were transferred to a submerged chamber maintained at room temperature and perfused with artificial cerebrospinal fluid at 2 ml min^−1. Standard extracellular recordings were used to monitor evoked field excitatory postsynaptic potentials (fEPSP) from stratum radiatum. The Schaffer collateral-commissural pathway was stimulated (constant voltage; 0.1 ms) at 0.033 Hz, using a stimulus intensity that evoked a peak amplitude ˜50% of the maximum. Synaptic potentials were low pass filtered at 2 kHz and digitally sampled at 10 kHz. The fEPSP slope was measured and expressed relative to baseline. Synaptic records are the average of 4 consecutive responses and stimulus artefacts are blanked for clarity. Recordings were made using an Axopatch 200B amplifier and analyzed using LTP v2.4 software. In synaptic plasticity studies, the degree of potentiation was calculated 30-35 min after HFS and expressed as a percentage of baseline±standard error of mean (SEM).
Several studies indicate that soluble Aβ oligomers impair activity-dependent synaptic plasticity, as exposure to Aβ inhibits hippocampal LTP (Shankar et al. 2008; Li et al. 2009) and enhances LTD (Shankar et al. 2008). Moreover, our recent studies indicate that leptin reverses the detrimental effects of Aβ1-42 on both LTP and LTD (Doherty et al. 2013). Thus we assessed if either of the fragments mirrored the protective actions of leptin on hippocampal synaptic plasticity. Initially we determined that application of leptin prevented the acute effects of Aβ1-42 on LTP. In control slices, synaptic plasticity was induced using high frequency stimulation (HFS; 100 Hz 10 trains of 8 stimuli) which increased synaptic transmission to 127±3.4% of baseline (n=8; P<0.01).

[2] = test system: tau in hippocampal neurons; test: Immunocytochemistry of endogenous tau and tau/PSD-95 co-localization; type: cell-based, Sprague-Dawley rats; conditions: for % co-localization of tau and PSD-95 in Aβ1-42-treated neurons / relative tau intensity in Aβ1-42-treated neurons: Aβ1-42 1 μM plus leptin/fragment 10 nM or SB216763 100 nM
Method: Hippocampal cultures were prepared as previously (Moult et al, 2010). Neonatal Sprague-Dawley rats (1-3 d old) were […] killed by cervical dislocation in accordance with the UK Animals (Scientific Procedures Act) 1986 legislation. Hippocampi were removed, and after washing in HEPES-buffered saline comprising (mM) 135 NaCl; 5 KCl; 1 CaCl2; 1 MgCl2; 10 HEPES; and 25 D-glucose at […], were treated with papain (1.5 mg ml21; Sigma-Aldrich) for 20 min at 37° C. Dissociated cells were plated onto sterile dishes (35 mm diameter; Greiner Bio-One, Kremsmun-ster, Austria) treated with poly-D-lysine (20 μg ml^−1; 1-2 h). Cultures were maintained in serum replacement medium (SR2; Sigma-Aldrich) in a humidified atmosphere of 5% CO2 and […] at 37° C. for up to 2 wk.
Immunocytochemistry was conducted on primary hippocampal cultures (7-14 DIV). Prior to labelling with antibodies, neurons were washed with HBS containing glycine (0.01 mM) and incubated with agents for 1 h at room temperature. Cultures were fixed with 4% paraformaldehyde for 5 min, then permeabilized with 0.1% Triton X-100 for 5 min. To label endogenous tau, neurons were incubated with a rabbit anti-tau (Ab-217; Genscript) primary antibody (1:200 dilution) at room temperature for 30 min, followed by incubation with an Alexa Fluor555 donkey anti-rabbit (1:250, Invitrogen) secondary antibody for an additional 30 min duration. To assess the % co-localisation of tau at synapses, neurons were dual labelled with an antibody against the synaptic marker, PSD-95 (mouse anti-PSD-95; 1:500, Thermo Fisher) followed by application of an Alexa Fluor488 goat anti-mouse secondary antibody (1:500, Invitrogen).
A Zeiss LSM510 confocal microscope was used for image acquisition and analysis. Images were obtained using a 10-s scan speed in single tracking mode or multi-tracking mode for dual labelling experiments. The intensity of immunostaining was measured off-line using Lasersharp software (Zeiss Lasersharp), whereby analysis lines of 50 μm length were drawn along randomly selected dendritic regions. All data were obtained from at least three different cultures from different animals. Imaging conditions including illumination intensity and photomultiplier gains were kept constant between treatments for each experiment. In addition, data were normalised relative to the mean fluorescence intensity obtained from control neurons. For synaptic co-localisation experiments, tau and PSD-95 positive immunostaining were compared. The number of tau-positive sites that co-localized with PSD-95 positive sites were counted and expressed as a percentage of total positive sites (peaks of intensity).

## leptin: the metabolic hormone leptin, whole (full length) leptin molecule; human leptin from Sigma in SH-SY5Y work
Hippocampal cultures
  colocalization between surface GluA1 and synaptophysin immunostaining: 62±4.4%
  synaptophysin staining: 144±9 % of control
[1]
  synaptic transmission after HFS in slices exposed to Aβ1-42: 135±6.3 % of baseline
[2]
  % co-localization of tau and PSD-95 in Aβ1-42-treated neurons: prevented the Aβ1.42-driven movement of tau to synapses
  relative tau intensity in Aβ1-42-treated neurons: reducing the dendritic levels of tau to near control levels

## leptin (22-56): leptin fragment amino acids 22-56 (Bachem), comparison fragment (VPIQKVQDDTKTLIKTIVTRINDISHTQSVSSKQK; UniProt P41159 22-56, looked up, fragment) [reference compound]
Hippocampal cultures
  colocalization between surface GluA1 and synaptophysin immunostaining: 49±5.4%
  synaptophysin staining: 105±9 % of control
[1]
  synaptic transmission after HFS in slices exposed to Aβ1-42: 107±3.3 % of baseline

## SCSLPQTSGLQKPES (listed as Mus musculus) [leptin (116-130)]
Hippocampal cultures
  colocalization between surface GluA1 and synaptophysin immunostaining: 64±4.9%
  synaptophysin staining: 122±9 % of control
[1]
  synaptic transmission after HFS in slices exposed to Aβ1-42: 136±5.5 % of baseline
[2]
  % co-localization of tau and PSD-95 in Aβ1-42-treated neurons: prevented Aβ1-42-driven movement of tau to synapses
  relative tau intensity in Aβ1-42-treated neurons: reducing dendritic tau levels

## Aβ1-42: amyloid beta 1-42, toxin used in the AD models [reference compound]
[1]; control slices 127±3.4%, 40 min
  synaptic transmission after HFS, Aβ peptide alone: 96±7.5 % of baseline
[2]; 1 μM
  % co-localization of tau and PSD-95, Aβ peptide alone: increases % co-localization between endogenous tau and PSD-95
  relative tau intensity at dendrites, Aβ peptide alone: increased endogenous tau expression compared to control
